Test results reported in patent US11542235B2, “Herbicidal 3-azaspiro[5.5] undecane-8, 10-dione compounds” (SYNGENTA PARTICIPATIONS AG, priority 2018, dated 2023).

What was measured:
Format in all cases: in vivo
Setaria faberi (SETFA) = experiment: Glasshouse herbicidal test, pre- and post-emergence, Setaria faberi; conditions: 250 g/h, evaluated after 13 days, five point scale; for percentage damage caused to the plant, SETFA POST: post-emergence; for percentage damage caused to the plant, SETFA PRE: pre-emergence
Experimental: (§1) Seeds of a variety of test species are sown in standard soil in pots (Lolium perenne (LOLPE), Setaria faberi (SETFA), Alopecurus myosuroides (ALOMY), Echinochloa crus-galli (ECHCG), Avena fatua (AVEFA)). After cultivation for one day (pre-emergence) or after 8 days cultivation (post-emergence) under controlled conditions in a glasshouse (at 24/16° C., day/night; 14 hours light; 65% humidity), the plants are sprayed with an aqueous spray solution derived from the formulation of the technical active ingredient in acetone/water (50:50) solution containing 0.5% Tween 20 (polyoxyethelyene sorbitan monolaurate, CAS RN 9005-64-5). Compounds are applied at […]. The test plants are then grown in a glasshouse under controlled conditions in a glasshouse (at 24/16° C., day/night; 14 hours light; 65% humidity) and watered twice daily. After 13 days for pre and post-emergence, the test is evaluated for the percentage damage caused to the plant. The biological activities are shown in the following table on a five point scale (5=80-100%; 4=60-79%; 3=40-59%; 2=20-39%; 1=0-19%).

[1] = system: Echinochloa crus-galli (ECHCG); experiment: Glasshouse herbicidal test, pre- and post-emergence, Echinochloa crus-galli; conditions: 250 g/h, evaluated after 13 days, five point scale; for percentage damage caused to the plant, ECHCG POST: post-emergence; for percentage damage caused to the plant, ECHCG PRE: pre-emergence
Experimental: as §1

[2] = system: Alopecurus myosuroides (ALOMY); experiment: Glasshouse herbicidal test, pre- and post-emergence, Alopecurus myosuroides; conditions: 250 g/h, evaluated after 13 days, five point scale; for percentage damage caused to the plant, ALOMY POST: post-emergence; for percentage damage caused to the plant, ALOMY PRE: pre-emergence
Experimental: as §1

Lolium perenne (LOLPE) = experiment: Glasshouse herbicidal test, pre- and post-emergence, Lolium perenne; conditions: 250 g/h, evaluated after 13 days, five point scale; for percentage damage caused to the plant, LOLPE POST: post-emergence; for percentage damage caused to the plant, LOLPE PRE: pre-emergence
Experimental: as §1

Avena fatua (AVEFA) = experiment: Glasshouse herbicidal test, pre- and post-emergence, Avena fatua; conditions: 250 g/h, evaluated after 13 days, five point scale; for percentage damage caused to the plant, AVEFA POST: post-emergence; for percentage damage caused to the plant, AVEFA PRE: pre-emergence
Experimental: as §1

CC#Cc1cc(C)c(C2C(=O)CC3(CCN(C(=O)C(F)(F)C(F)F)CC3)CC2=O)c(C)c1 [Compound A29]
5 (5=80-100%): percentage damage caused to the plant, SETFA POST (Setaria faberi (SETFA)) | percentage damage caused to the plant, SETFA PRE (Setaria faberi (SETFA)) | percentage damage caused to the plant, ECHCG POST [1] | percentage damage caused to the plant, ECHCG PRE [1] | percentage damage caused to the plant, ALOMY POST [2] | percentage damage caused to the plant, ALOMY PRE [2] | percentage damage caused to the plant, LOLPE POST (Lolium perenne (LOLPE)) | percentage damage caused to the plant, LOLPE PRE (Lolium perenne (LOLPE)) | percentage damage caused to the plant, AVEFA POST (Avena fatua (AVEFA)) | percentage damage caused to the plant, AVEFA PRE (Avena fatua (AVEFA))

CC#Cc1cc(C)c(C2=C(OC(=O)C(C)(C)C)CC3(CCN(OC)CC3)CC2=O)c(C)c1 [Compound P1]
5 (5=80-100%): percentage damage caused to the plant, SETFA POST (Setaria faberi (SETFA)) | percentage damage caused to the plant, SETFA PRE (Setaria faberi (SETFA)) | percentage damage caused to the plant, ECHCG POST [1] | percentage damage caused to the plant, ECHCG PRE [1] | percentage damage caused to the plant, ALOMY POST [2] | percentage damage caused to the plant, ALOMY PRE [2] | percentage damage caused to the plant, LOLPE POST (Lolium perenne (LOLPE)) | percentage damage caused to the plant, LOLPE PRE (Lolium perenne (LOLPE)) | percentage damage caused to the plant, AVEFA POST (Avena fatua (AVEFA)) | percentage damage caused to the plant, AVEFA PRE (Avena fatua (AVEFA))

CC#Cc1cc(C)c(C2=C(OC(C)=O)CC3(CCN(OC)CC3)CC2=O)c(C)c1 [Compound P2]
5 (5=80-100%): percentage damage caused to the plant, SETFA POST (Setaria faberi (SETFA)) | percentage damage caused to the plant, SETFA PRE (Setaria faberi (SETFA)) | percentage damage caused to the plant, ECHCG POST [1] | percentage damage caused to the plant, ECHCG PRE [1] | percentage damage caused to the plant, ALOMY POST [2] | percentage damage caused to the plant, ALOMY PRE [2] | percentage damage caused to the plant, LOLPE POST (Lolium perenne (LOLPE)) | percentage damage caused to the plant, LOLPE PRE (Lolium perenne (LOLPE)) | percentage damage caused to the plant, AVEFA POST (Avena fatua (AVEFA)) | percentage damage caused to the plant, AVEFA PRE (Avena fatua (AVEFA))

CC#Cc1cc(C)c(C2=C(OC(=O)OC)CC3(CCN(OC)CC3)CC2=O)c(C)c1 [Compound P3]
5 (5=80-100%): percentage damage caused to the plant, SETFA POST (Setaria faberi (SETFA)) | percentage damage caused to the plant, SETFA PRE (Setaria faberi (SETFA)) | percentage damage caused to the plant, ECHCG POST [1] | percentage damage caused to the plant, ECHCG PRE [1] | percentage damage caused to the plant, ALOMY POST [2] | percentage damage caused to the plant, ALOMY PRE [2] | percentage damage caused to the plant, LOLPE POST (Lolium perenne (LOLPE)) | percentage damage caused to the plant, LOLPE PRE (Lolium perenne (LOLPE)) | percentage damage caused to the plant, AVEFA POST (Avena fatua (AVEFA)) | percentage damage caused to the plant, AVEFA PRE (Avena fatua (AVEFA))

CC#Cc1cc(C)c(C2=C(OC(C)=O)CC3(CCN(C(C)=O)CC3)CC2=O)c(C)c1 [Compound P4, [3-acetyl-9-(2,6-dimethyl-4-prop-1-ynyl-phenyl)-10-oxo-3-azaspiro[5.5]undec-8-en-8-yl] acetate]
5 (5=80-100%): percentage damage caused to the plant, SETFA PRE (Setaria faberi (SETFA)) | percentage damage caused to the plant, ECHCG POST [1] | percentage damage caused to the plant, ECHCG PRE [1] | percentage damage caused to the plant, ALOMY POST [2] | percentage damage caused to the plant, ALOMY PRE [2] | percentage damage caused to the plant, LOLPE POST (Lolium perenne (LOLPE)) | percentage damage caused to the plant, LOLPE PRE (Lolium perenne (LOLPE)) | percentage damage caused to the plant, AVEFA POST (Avena fatua (AVEFA)) | percentage damage caused to the plant, AVEFA PRE (Avena fatua (AVEFA))

CC#Cc1cc(C)c(C2=C(OC(=O)OC)CC3(CCN(C(C)=O)CC3)CC2=O)c(C)c1 [Compound P5]
5 (5=80-100%): percentage damage caused to the plant, SETFA POST (Setaria faberi (SETFA)) | percentage damage caused to the plant, SETFA PRE (Setaria faberi (SETFA)) | percentage damage caused to the plant, ECHCG POST [1] | percentage damage caused to the plant, ECHCG PRE [1] | percentage damage caused to the plant, ALOMY POST [2] | percentage damage caused to the plant, ALOMY PRE [2] | percentage damage caused to the plant, LOLPE POST (Lolium perenne (LOLPE)) | percentage damage caused to the plant, LOLPE PRE (Lolium perenne (LOLPE)) | percentage damage caused to the plant, AVEFA POST (Avena fatua (AVEFA)) | percentage damage caused to the plant, AVEFA PRE (Avena fatua (AVEFA))

CC#Cc1cc(C)c(C2=C(OC(=O)C(C)C)CC3(CCN(C(=O)C(C)C)CC3)CC2=O)c(C)c1 [Compound P7]
5 (5=80-100%): percentage damage caused to the plant, SETFA POST (Setaria faberi (SETFA)) | percentage damage caused to the plant, SETFA PRE (Setaria faberi (SETFA)) | percentage damage caused to the plant, ECHCG POST [1] | percentage damage caused to the plant, ECHCG PRE [1] | percentage damage caused to the plant, ALOMY POST [2] | percentage damage caused to the plant, ALOMY PRE [2] | percentage damage caused to the plant, LOLPE POST (Lolium perenne (LOLPE)) | percentage damage caused to the plant, LOLPE PRE (Lolium perenne (LOLPE)) | percentage damage caused to the plant, AVEFA POST (Avena fatua (AVEFA)) | percentage damage caused to the plant, AVEFA PRE (Avena fatua (AVEFA))

CC#Cc1cc(C)c(C2=C(OC(=O)Oc3ccccc3)CC3(CCN(C(C)=O)CC3)CC2=O)c(C)c1 [Compound P9]
5 (5=80-100%): percentage damage caused to the plant, SETFA POST (Setaria faberi (SETFA)) | percentage damage caused to the plant, SETFA PRE (Setaria faberi (SETFA)) | percentage damage caused to the plant, ECHCG PRE [1] | percentage damage caused to the plant, ALOMY POST [2] | percentage damage caused to the plant, ALOMY PRE [2] | percentage damage caused to the plant, LOLPE POST (Lolium perenne (LOLPE)) | percentage damage caused to the plant, LOLPE PRE (Lolium perenne (LOLPE)) | percentage damage caused to the plant, AVEFA POST (Avena fatua (AVEFA)) | percentage damage caused to the plant, AVEFA PRE (Avena fatua (AVEFA))

CC#Cc1cc(C)c(C2=C(OC(=O)OC(C)C)CC3(CCN(C(C)=O)CC3)CC2=O)c(C)c1 [Compound P10]
5 (5=80-100%): percentage damage caused to the plant, SETFA POST (Setaria faberi (SETFA)) | percentage damage caused to the plant, SETFA PRE (Setaria faberi (SETFA)) | percentage damage caused to the plant, ECHCG POST [1] | percentage damage caused to the plant, ECHCG PRE [1] | percentage damage caused to the plant, ALOMY POST [2] | percentage damage caused to the plant, ALOMY PRE [2] | percentage damage caused to the plant, LOLPE POST (Lolium perenne (LOLPE)) | percentage damage caused to the plant, LOLPE PRE (Lolium perenne (LOLPE)) | percentage damage caused to the plant, AVEFA POST (Avena fatua (AVEFA)) | percentage damage caused to the plant, AVEFA PRE (Avena fatua (AVEFA))

CC#Cc1cc(C)c(C2=C(OC(=O)C(C)(C)C)CC3(CCN(C(C)=O)CC3)CC2=O)c(C)c1 [Compound P11]
5 (5=80-100%): percentage damage caused to the plant, SETFA POST (Setaria faberi (SETFA)) | percentage damage caused to the plant, SETFA PRE (Setaria faberi (SETFA)) | percentage damage caused to the plant, ECHCG POST [1] | percentage damage caused to the plant, ECHCG PRE [1] | percentage damage caused to the plant, ALOMY POST [2] | percentage damage caused to the plant, ALOMY PRE [2] | percentage damage caused to the plant, LOLPE POST (Lolium perenne (LOLPE)) | percentage damage caused to the plant, LOLPE PRE (Lolium perenne (LOLPE)) | percentage damage caused to the plant, AVEFA POST (Avena fatua (AVEFA)) | percentage damage caused to the plant, AVEFA PRE (Avena fatua (AVEFA))

CC#Cc1cc(C)c(C2=C(OC(=O)C(C)C)CC3(CCN(C(C)=O)CC3)CC2=O)c(C)c1 [Compound P12]
5 (5=80-100%): percentage damage caused to the plant, SETFA POST (Setaria faberi (SETFA)) | percentage damage caused to the plant, SETFA PRE (Setaria faberi (SETFA)) | percentage damage caused to the plant, ECHCG POST [1] | percentage damage caused to the plant, ECHCG PRE [1] | percentage damage caused to the plant, ALOMY POST [2] | percentage damage caused to the plant, ALOMY PRE [2] | percentage damage caused to the plant, LOLPE POST (Lolium perenne (LOLPE)) | percentage damage caused to the plant, LOLPE PRE (Lolium perenne (LOLPE)) | percentage damage caused to the plant, AVEFA POST (Avena fatua (AVEFA)) | percentage damage caused to the plant, AVEFA PRE (Avena fatua (AVEFA))
